Reference: a melting point compilation (Tetko et al.; mined from patent text by program, amines drawn as free bases though some values may be those of a salt)

| SMILES | melting point [°C] |
| --- | --- |
| Sc1nc(-c2ccc(Cl)c(Cl)c2)c(-c2cccs2)[nH]1 | 263 to 265 |
| Fc1cccc(CC2(Cc3ccncc3)c3cccnc3-c3ncccc32)n1 | 180 to 182 |
| OC(CCl)CN(CC(O)CCl)c1ccccc1 (stereo not given) | 60 |
| O=[N+]([O-])c1ccccc1-c1ccno1 | 66 to 69 |
| OCc1c(Cl)ccc2nnsc12 | 138 to 140 |
| CN1C(=O)[C@H](NC(=O)CCCc2cccs2)N=C(c2ccccc2)c2ccccc21 | 170 to 180 |
| Cc1ccc(S(=O)(=O)C(CCl)Sc2cccc(C)c2)cc1 (stereo not given) | 80 to 97 |
| CS(=O)(=O)c1ccc(-c2[nH]nc(C(=O)CCCO)c2-c2ccc(C#N)cc2)cc1 | 169 to 171 |
| CN(C)Cc1ccc2sc(S(N)(=O)=O)cc2c1 | 172 to 174 |
| ClCc1cn2cccc(OCc3ccccc3)c2n1 | 163 |
| CN(C)C(=S)Oc1ccc(C(=O)c2ccc(C#N)cc2)cc1 | 162 |
| CCCCNc1c(C(=O)OCC)c(C)nc2c1nnn2CC | 42 to 43 |
| O=c1cc(-c2ccoc2)c2ccc(O)cc2o1 | 229 to 232 |
| O=C=Nc1c(Cl)c(Cl)c(Cl)c(Cl)c1Cl | 100 to 102 |
| COCCCOc1ccc(-c2nc(C(=O)Nc3nccs3)c(-c3ccc(Cl)cc3)[nH]2)cc1 | 173 to 177 |
| Cc1nc2c(Cl)cc(F)c([N+](=O)[O-])c2s1 | 130 to 132 |
| S=c1[nH]ccc2ccsc12 | 187 to 189 |
| COc1ccc2c(c1)Nc1[nH]cnc(=O)c1C2 | > 300 |
| CN1CCC2(CC1)OC(=O)c1ccccc12 | 147 to 148 |
| O=c1[nH]c2ccc(Br)cc2cc1[N+](=O)[O-] | 276 |
| CCC1(CC)C(=O)N(C(C)(C)CO)CC(C)(C)N1OC(C)(C)C#N | 58 to 66 |

| SMILES | melting point [°C] |
| --- | --- |
| CNc1nc(F)c(OC(F)F)c(Cl)n1 | 57 to 61 |
| COC1=CC(=O)c2c(c(COc3cc(C=Cc4cc(OC)c(OC)c(OC)c4)ccc3OC)c(C)n2C)C1=O | 192 to 194 |
| Cc1cc(-c2cccc(C(F)(F)F)c2)c2nc(OCC(F)(F)F)cnc2c1 | 46 to 48 |
| Cc1nn(-c2ccc(C(F)(F)F)cn2)cc1CO | 157 to 158 |
| CS(=O)(=O)Nc1cc([N+](=O)[O-])ccc1F | 128 to 129 |
| CCSc1ccc2oc3cc(-c4nnn[nH]4)ccc3c(=O)c2c1 | 261 to 262 |
| COCOc1ccc(C=CC(=O)c2ccc(OCc3ccccc3)cc2O)c(OCc2ccccc2)c1 | 147 to 148 |
| Nc1ccc(Cl)cc1S | 70 to 72 |
| Nc1ccc(Oc2ccc(S(=O)(=O)c3ccc(Oc4ccc(N)c(O)c4)cc3)cc2)cc1O | 228 to 231 |
| O=[N+]([O-])c1ccc2onc(-c3ccccc3O)c2c1 | 172 to 176 |
| CCCCCCCCCCCCCCCCCC(=O)Nc1ccc(NC(=O)NS(=O)(=O)c2ccc(OC)cc2)cc1 | 188 |
| Cc1cc(-c2ncn3c(C(F)(F)F)cc(-c4ccc(C(F)(F)F)c(C)c4)nc23)ccn1 | 243 |
| Clc1csc(-c2cccnc2)n1 | 84 to 86 |
| CCCn1c(C)c2c(c1C)C(=O)C(C)=C(C)C2=O | 165 to 167 |
| Nc1ncnc2c1ncn2C[C@@H]1O[C@H](CO)[C@@H](O)[C@@H]1O | 107 to 109 |
| Nc1c(Oc2ccc(F)c(C(F)(F)F)c2)ncnc1Oc1ccc(F)c(C(F)(F)F)c1 | 104 to 105 |
| Cc1cn(CCCCc2ccccc2)c2ccc(C(=O)Nc3cccc4c(=O)cc(-c5nnn[nH]5)oc34)cc12 | 186 to 187 |
| CC(C)(NC=O)c1cccc(C(F)(F)C(F)(F)c2ccccc2)c1 | 90 to 95 |
| CCCc1c(N)c(C(C)=O)cc(C(C)=O)c1O | 138 to 139 |
| CCOC(=O)CNC(=O)CCCCCNC(=O)c1ccc(F)cc1 | 121 to 122 |

The next lines start with the values.

| melting point [°C] | SMILES |
| --- | --- |
| 133 to 142 | COC(=O)c1cccc(S(=O)(=O)N(C)C)c1CS(N)(=O)=O |
| 245 to 248 | Cc1cc(C(=O)O)cc(Cl)c1C1=NC(C)(C(C)C)C(=O)N1 (stereo not given) |
| 138 to 140 | O=c1cc(Cl)nc2sc(SCc3ccccc3)nn12 |
| 122 to 123 | O=C(O)CCCCC1Cc2ccc(F)cc2C1=O (stereo not given) |
| 122 to 123 | CC(C)(C)OC(=O)NNC(=O)N1CCC(Br)C1=O (stereo not given) |
| 170 to 172 | C(#Cc1cccnc1)C1=CCN(Cc2c[nH]c3ncccc23)CC1 |
| 120 | CC(=O)OC1CSC(Oc2cncc(-c3ccc(F)cc3C)c2)C(OC(C)=O)C1OC(C)=O (stereo not given) |
| 148 | O=S(=O)(c1ccc(Oc2cncc(Br)c2)cc1)N1CCCC1 |
| 209 | CC(C)(OCc1cc2nc(Cl)ccc2n1S(=O)(=O)c1cccc2ccccc12)C(=O)O |
| 167 to 170 | O=C(c1ccc(OCCN2CCCCC2)cc1)c1c(-c2ccc(O)cc2)ccc2ccccc12 |
| 120 to 121 | CCOc1nn(Cc2ccc(OCc3cccnc3)cc2)cc1CCC(=O)O |
| 114 to 115 | CC(C)c1nn(-c2ccc(C(F)(F)F)cn2)cc1COc1cccc(CC(=O)O)c1 |
| 138 to 142 | O=C(c1ccoc1)c1ccc(O)c(Cl)c1Cl |
| 131 to 133 | CCCN(c1ccncc1)n1ccc2cc(OC(=O)NC(C)C)ccc21 |
| 196 to 197 | CCCCOc1c(CN2C(=O)c3ccccc3C2=O)n(CCC(=O)O)c(=O)c2cc(Cl)c(Cl)cc12 |
| 173 to 175 | COc1cc2oc(=O)c3c(c2cc1OC)CCN(Cc1ccc(Cl)cc1)C3 |
| 175 to 177 | CCCCc1ncc(/C=C(\Cc2cccs2)C(=O)O)n1Cc1ccccc1Cl |
| 84 to 94 | CC(C)C[C@H](NC(=O)OCc1ccccc1)C(=O)N[C@@H](C(C)C)[C@@H](O)c1c(-c2ccccc2)c1=O |
| 218 to 220 | Cc1csc(C(=O)c2[nH]c3ccc(Cl)cc3c2CC(=O)O)n1 |
| 116 to 118 | COC(=NS(=O)(=O)c1nc(-c2ccccc2C)ns1)C(C)C |

| melting point [°C] | SMILES |
| --- | --- |
| 59 to 60 | COc1ccc([C@H]2[C@@H](c3ccccc3)C2(Cl)Cl)cc1 (relative stereo) |
| 83 to 85 | CNS(=O)(=O)c1ccc(Nc2cc(N3CCCC3)cc(-c3ccc(OC(F)(F)F)cc3)n2)cc1 |
| 130 | CC(=O)Nc1ccc(NCCNS(C)(=O)=O)cc1 |
| 154 to 156 | COc1ccc([N+](=O)[O-])cc1CN1CCNCCNCCNCC1 |
| 41 to 43 | CC(C)c1ccc(NC=CS(=O)(=O)F)cc1 |
| 49 to 50 | CCCOCC(=O)c1ccc([N+](=O)[O-])cc1 |
| 115 to 117 | C(=C\c1ccc(N2CCCC2)cc1)/CC1CCN(Cc2ccccc2)CC1 |
| 222 | Cc1cc(C#N)cc(C(=O)Nc2cccc(Cl)n2)n1 |
| 52 to 54 | CNC(=Nc1cccc(C(F)(F)F)c1)C(C)C |
| > 200 | Cc1nc(O)c([N+](=O)[O-])c(N2CCc3cncnc3CC2)n1 |
| 155 to 158 | C[C@@H]1Cc2ccsc2[C@H](c2ccccc2)N1CCNS(=O)(=O)c1ccc(NS(C)(=O)=O)cc1 (relative stereo) |
| 212 to 213 | CC(=O)NCC1CN=C(c2cc3cccc(N(C)S(=O)(=O)c4cccs4)c3[nH]2)S1 (stereo not given) |
| 128 to 131 | CC(C)OC(=O)N[C@H]1CC[C@H](CCN2CCN(c3cccc(Cl)c3Cl)CC2)CC1 |
| 266 to 269 | CN1CC(N(C)[C@@H]2c3cc(C#N)ccc3OC(C)(C)[C@H]2O)=CC1=O (relative stereo) |
| 93 to 95 | CC(C)(C)OC(=O)N1C[C@H](O)C[C@H]1C(=O)OC(c1ccccc1)c1ccccc1 |
| 69 to 74 | Cc1c(C(=O)OC(C)C)ncc2c1c1c(OCc3ccccc3)cccc1n2CC(=O)N(C)CCc1ccccc1 |
| 243 to 244 | CC1(C)CC(=O)C2=C(C1)NC1=C(C(=O)CC(C)(C)C1)C2c1ccc(Cl)c(OCc2ccccc2)c1 |
| 234 to 235 | O=C(O)c1cccc(-c2cccc(Oc3cc(Cl)cc(Cl)c3)n2)c1 |
| 92 to 93 | COc1ccc2c(cc3n2CCCO3)n1 |
| 132 | COc1ccc(S(=O)(=O)N(CC(N)=O)c2ccc(Cl)cc2C(O)c2cc(Cl)ccc2Cl)cc1OC (stereo not given) |

| melting point [°C] | SMILES |
| --- | --- |
| 119 to 120 | CCCCc1cc(=O)c(C(=O)OCC)cn1Cc1ccc(-c2ccccc2-c2nnn[nH]2)cc1 |
| 100 to 102 | CCc1cc(NC(=O)N2CCN(c3cc(C)cc(C)c3)CC2)c(N2CCNCC2)nc1C |
| 152 to 153 | FC(F)(F)c1cc(CO[C@@H]2CCCN(Cc3nc4ccccc4[nH]3)[C@@H]2c2ccccc2)cc(C(F)(F)F)c1 (relative stereo) |
| 204 to 205 | Cc1ccc(-c2ncn3c2CN(N(C)C)c2ccccc2-3)cc1 |
| 105 | CCC(C)N(C)C(=O)c1cc(-c2ccccc2)c2sccc2c1 (stereo not given) |
| 173 | COC(=O)C(C)c1ccc2nc3ccc(Cl)cn3c(=O)c2c1 (stereo not given) |
| 286 to 288 | O=C(O)C1CC1c1cc(=O)c2ccc3ccccc3c2o1 (stereo not given) |
| 159 | CC(C)(C)NS(=O)(=O)c1ccccc1-c1ccc(NC(=O)C(=O)O)cc1 |
| 134 | CCOC(=O)COc1c(OC)cc(Cl)c2c1CN1CCc3cc(OC)c(OCc4ccccc4)cc3C1C2 (stereo not given) |
| 140 to 142 | COc1cc(C)c(C(C)O)cc1NC(=O)N1CCN(c2cc(C)cc(C)c2)CC1 (stereo not given) |
| 135 to 136 | COC(=O)c1ccc(Cn2nc(C(C)(C)C)cc2C(C)(C)C)cc1 |
| 190 | N#CCN1CCC(Nc2nc3ccccc3n2Cc2ccnc3ccccc23)CC1 |
| 208 | CC(=O)C(c1ccc(Cl)cc1)c1c(Cl)cc(-n2ncc(=O)[nH]c2=O)cc1Cl (stereo not given) |
| 204 to 206 | COCC(=O)Nc1ccc2ncnc(Nc3cc(Cl)c(Cl)cc3F)c2c1 |
| 93 to 96 | COc1ccc(S(=O)(=O)C(C)(Cc2ccccc2Br)C(=O)O)cc1 (stereo not given) |
| 189 to 192 | COc1ccc2[nH]c(C(=O)N3CCC[C@H](C)C3)cc2c1 |
| 103 to 105 | CSC(SC)=C(C#N)C(=O)NC1CCCCC1 |
| 133 to 134 | O=C1Cc2ccccc2C(c2cccc(Cl)c2)N1 (stereo not given) |
| 182 | CCc1c(-c2ccc(N3CCN(C)CC3)nn2)ssc1=S |
